pIC50: −log10 of the molar value. Values joined by “and” are separate entries in the source; they are usually repeats but may differ in a detail not shown here. Identical values can stand only once.
Tests used:
[1] = target: Glycogen synthase kinase-3 alpha (Homo sapiens, UniProt P49840); assay: TR-FRET Assay
Outline: (§1)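 Signal is measured as TR-FRET between a terbium anti-phospho-Ser641 antibody and streptavidin-d2, added after an EDTA quench. Compounds are preincubated 30 min in assay buffer.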

[2] = target: Glycogen synthase kinase-3 beta (Homo sapiens, UniProt P49841); assay: TR-FRET Assay
Chain of Glycogen synthase kinase-3 beta (P49841 whole entry): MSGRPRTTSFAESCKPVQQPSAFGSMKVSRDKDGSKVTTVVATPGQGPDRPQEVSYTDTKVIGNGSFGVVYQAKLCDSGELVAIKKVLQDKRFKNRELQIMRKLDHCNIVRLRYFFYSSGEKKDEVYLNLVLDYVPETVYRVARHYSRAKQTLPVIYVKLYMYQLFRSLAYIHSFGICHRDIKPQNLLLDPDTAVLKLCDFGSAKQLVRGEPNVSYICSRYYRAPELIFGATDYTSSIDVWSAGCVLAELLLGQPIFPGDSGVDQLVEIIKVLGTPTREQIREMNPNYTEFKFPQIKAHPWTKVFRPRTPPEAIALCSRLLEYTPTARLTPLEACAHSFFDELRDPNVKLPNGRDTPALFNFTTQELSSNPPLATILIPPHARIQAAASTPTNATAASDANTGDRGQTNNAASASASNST
Outline: as §1

Chain of Glycogen synthase kinase-3 alpha (P49840 whole entry): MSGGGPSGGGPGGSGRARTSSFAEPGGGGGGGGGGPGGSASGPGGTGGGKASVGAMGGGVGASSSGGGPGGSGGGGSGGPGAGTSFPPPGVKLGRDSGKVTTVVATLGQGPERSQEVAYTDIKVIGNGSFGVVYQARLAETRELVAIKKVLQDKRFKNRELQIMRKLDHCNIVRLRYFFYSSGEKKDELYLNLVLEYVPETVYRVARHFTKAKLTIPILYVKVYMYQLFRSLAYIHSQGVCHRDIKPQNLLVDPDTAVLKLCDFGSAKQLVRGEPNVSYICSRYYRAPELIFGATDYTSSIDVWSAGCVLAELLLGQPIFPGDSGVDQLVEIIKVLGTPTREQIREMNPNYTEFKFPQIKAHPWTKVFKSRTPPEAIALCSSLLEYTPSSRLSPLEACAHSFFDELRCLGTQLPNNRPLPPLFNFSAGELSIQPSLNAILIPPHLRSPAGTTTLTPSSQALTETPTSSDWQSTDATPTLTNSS

SMILES | pIC50 [1] | pIC50 [2]
CC1(C)CC(=O)C2=C(C1)NC1N=NC=C1[C@@]21CCCN(S(=O)(=O)Cc2ccccc2)CC1 (some centres undefined) [US20250313563, Compound 945473] | > 7.00 | 6.00 to 7.00
CC[C@@]1(c2cccc(N(C)c3ccc(C(F)(F)F)nc3)c2)C2=CN=NC2NC2=C1C(=O)CC(C)(C)C2 (some centres undefined) [US20250313563, Compound 945474] | > 7.00 | 6.00 to 7.00
CC[C@@]1(c2cccc(-c3ccnc(C)c3)c2)C2=CN=NC2NC2=C1C(=O)[C@@H](F)C(C)(C)C2 (some centres undefined) [US20250313563, Compound 945475] | > 7.00 and 5.30 to 6.00 | 6.00 to 7.00 and < 5.30
CC[C@@]1(c2cccc(-c3ccnc(C)c3)c2)C2=CN=NC2NC2=C1C(=O)[C@H](F)C(C)(C)C2 (some centres undefined) [US20250313563, Compound 945476] | > 7.00 and 6.00 to 7.00 | 6.00 to 7.00 and < 5.30
CC1(C)CC(=O)C2=C(C1)NC1=C(CN=N1)C21CN(c2ccccn2)C1 [US20250313563, Compound 945477] | 5.30 to 6.00 | 5.30 to 6.00
CC1(C)CC(=O)C2=C(C1)NC1N=NC=C1C21CN(c2ccc(C(F)(F)F)cc2)C1 (centres undefined) [US20250313563, Compound 945478] | 6.00 to 7.00 | 6.00 to 7.00
CC[C@@]1(c2cccc(-c3ccncc3CO)c2)C2=CN=NC2NC2=C1C(=O)CC(C)(C)C2 (some centres undefined) [US20250313563, Compound 945479] | 6.00 to 7.00 | 5.30 to 6.00
CC[C@]1(c2cccc(-c3cn(C)nc3C)c2)C2=CN=NC2NC2=C1C(=O)NC(C)(C)C2 (some centres undefined) [US20250313563, Compound 945480] | 5.30 to 6.00 | < 5.30
CC[C@@]1(c2cccc(-c3ncnn3C)c2)C2=CN=NC2NC2=C1C(=O)CC(C)(C)C2 (some centres undefined) [US20250313563, Compound 945482] | 5.30 to 6.00 and < 5.30 | < 5.30
CC1(C)CC(=O)C2=C(C1)NC1N=NC=C1[C@]21CCCN(S(=O)(=O)Cc2ccccc2)CC1 (some centres undefined) [US20250313563, Compound 945483] | 6.00 to 7.00 | 6.00 to 7.00
CC[C@]1(c2cccc(CN(C)c3ccc(C(F)(F)F)nc3)c2)C2=CN=NC2NC2=C1C(=O)CC(C)(C)C2 (some centres undefined) [US20250313563, Compound 945484] | < 5.30 | < 5.30
CC[C@]1(c2cccc(-c3ccnc(C)c3)c2)C2=CN=NC2NC2=C1C(=O)[C@H](F)C(C)(C)C2 (some centres undefined) [US20250313563, Compound 945485] | < 5.30 | < 5.30
CC[C@]1(c2cccc(-c3ccnc(C)c3)c2)C2=CN=NC2NC2=C1C(=O)[C@@H](F)C(C)(C)C2 (some centres undefined) [US20250313563, Compound 945486] | 5.30 to 6.00 | < 5.30
CCC1(c2cccc(-c3ccncc3C)c2)C2=C(CC(C)(C)CC2=O)NC2N=NC(C(F)(F)F)=C21 (centres undefined) [US20250313563, Compound 945527] | > 7.00 | > 7.00 and 6.00 to 7.00
CCC1(c2cccc(-c3ccncc3F)c2)C2=C(CC(C)(C)CC2=O)NC2N=NC(C(F)(F)F)=C21 (centres undefined) [US20250313563, Compound 945528] | > 7.00 | > 7.00 and 6.00 to 7.00
CCC1(c2cccc(-c3ccnc(C)c3C)c2)C2=C(CC(C)(C)CC2=O)NC2N=NC(C(F)(F)F)=C21 (centres undefined) [US20250313563, Compound 945529] | > 7.00 | > 7.00 and 6.00 to 7.00
CCC1(c2cccc(-c3cc(C)ncc3C)c2)C2=C(CC(C)(C)CC2=O)NC2N=NC(C(F)(F)F)=C21 (centres undefined) [US20250313563, Compound 945530] | > 7.00 | > 7.00
CCC1(c2cccc(-c3ccnn3C)c2)C2=C(CC(C)(C)CC2=O)NC2N=NC(C(F)(F)F)=C21 (centres undefined) [US20250313563, Compound 945531] | > 7.00 | > 7.00 and 6.00 to 7.00
CCC1(c2cccc(-c3cc(C)nn3C)c2)C2=C(CC(C)(C)CC2=O)NC2N=NC(C(F)(F)F)=C21 (centres undefined) [US20250313563, Compound 945532] | > 7.00 | > 7.00 and 6.00 to 7.00
CC[C@]1(c2cccc(-c3cnn4c3CCCC4)c2)C2=CN=NC2NC2=C1C(=O)CC(C)(C)C2 (some centres undefined) [US20250313563, Compound 945543] | 6.00 to 7.00 | 5.30 to 6.00
CC[C@]1(c2cccc(-c3cn(C)nc3C)c2)C2=CN=NC2NC2=C1C(=O)CC(C)(C)C2 (some centres undefined) [US20250313563, Compound 945545] | 5.30 to 6.00 | < 5.30
CC[C@@]1(c2cccc(-c3cn(C)nc3C)c2)C2=CN=NC2NC2=C1C(=O)CC(C)(C)C2 (some centres undefined) [US20250313563, Compound 945546] | > 7.00 | > 7.00 and 6.00 to 7.00
CC1(C)CC(=O)C2=C(C1)NC1N=NC=C1[C@@]21CCCc2c(-c3ccncc3)cccc21 (some centres undefined) [US20250313563, Compound 945547] | 5.30 to 6.00 | < 5.30
CC1(C)CC(=O)C2=C(C1)NC1N=NC=C1[C@]21CCCc2c(-c3ccncc3)cccc21 (some centres undefined) [US20250313563, Compound 945548] | > 7.00 | > 7.00
Cc1cc(-c2cccc3c2CCC[C@@]32C3=CN=NC3NC3=C2C(=O)CC(C)(C)C3)ccn1 (some centres undefined) [US20250313563, Compound 945549] | > 7.00 | > 7.00
Cc1cc(-c2cccc3c2CCC[C@]32C3=CN=NC3NC3=C2C(=O)CC(C)(C)C3)ccn1 (some centres undefined) [US20250313563, Compound 945550] | 6.00 to 7.00 | < 5.30

SMILES | pIC50 [1] | pIC50 [2]
Cn1nccc1-c1cccc2c1CCC[C@@]21C2=CN=NC2NC2=C1C(=O)CC(C)(C)C2 (some centres undefined) [US20250313563, Compound 945551] | > 7.00 | > 7.00
Cn1nccc1-c1cccc2c1CCC[C@]21C2=CN=NC2NC2=C1C(=O)CC(C)(C)C2 (some centres undefined) [US20250313563, Compound 945552] | 6.00 to 7.00 | < 5.30
CCC1(c2cccc(-c3cncn3C)c2)C2=CN=NC2NC2=C1C(=O)NC(C)(C)C2 (centres undefined) [US20250313563, Compound 945597] | > 7.00 | > 7.00
CCC1(c2cccc(-c3c(C)nn(C)c3C)c2)C2=C(CC(C)(C)NC2=O)NC2N=NC(C)=C21 (centres undefined) [US20250313563, Compound 945598] | > 7.00 | > 7.00
CCC1(c2cccc(-c3ccncc3C)c2)C2=C(CC(C)(C)NC2=O)NC2N=NC(C)=C21 (centres undefined) [US20250313563, Compound 945599] | > 7.00 | > 7.00
CCc1cc(N(C)c2cccc(C3(CC)C4=CN=NC4NC4=C3C(=O)CC(C)(C)C4)c2)ccn1 (centres undefined) [US20250313563, Compound 945600] | 6.00 to 7.00 | 5.30 to 6.00
CCC1(c2cccc(CS(C)(=O)=O)c2)C2=CN=NC2NC2=C1C(=O)CC(C)(C)C2 (centres undefined) [US20250313563, Compound 945601] | 6.00 to 7.00 | 6.00 to 7.00
CCC1(c2cccc(N3CCOCC3)c2)C2=CN=NC2NC2=C1C(=O)NC(C)(C)C2 (centres undefined) [US20250313563, Compound 945602] | 5.30 to 6.00 | < 5.30
CCC1(c2cccc(-c3cnn4c3CCCC4)c2)C2=CN=NC2NC2=C1C(=O)NC(C)(C)C2 (centres undefined) [US20250313563, Compound 945603] | > 7.00 | 6.00 to 7.00
CC[C@@]1(c2cccc(S(C)(=O)=O)c2)C2=CN=NC2NC2=C1C(=O)NC(C)(C)C2 (some centres undefined) [US20250313563, Compound 945604] | > 7.00 | > 7.00
CC[C@@]1(c2cccc(-c3cncn3C)c2)C2=CN=NC2NC2=C1C(=O)CC(C)(C)C2 (some centres undefined) [US20250313563, Compound 945605] | > 7.00 | > 7.00
CC[C@@]1(c2cccc(-c3ccnc4c3CCC4)c2)C2=CN=NC2NC2=C1C(=O)CC(C)(C)C2 (some centres undefined) [US20250313563, Compound 945606] | 6.00 to 7.00 | 6.00 to 7.00 and 5.30 to 6.00
CC[C@@]1(c2cccc(-c3cnc4n3CCCC4)c2)C2=CN=NC2NC2=C1C(=O)CC(C)(C)C2 (some centres undefined) [US20250313563, Compound 945607] | > 7.00 and 5.30 to 6.00 | 6.00 to 7.00 and < 5.30
CC[C@@]1(c2cccc(-c3cnn(C)c3C)c2)C2=CN=NC2NC2=C1C(=O)NC(C)(C)C2 (some centres undefined) [US20250313563, Compound 945608] | > 7.00 | 6.00 to 7.00
CC[C@@]1(c2cccc(N(C)c3cc(C)ccn3)c2)C2=CN=NC2NC2=C1C(=O)CC(C)(C)C2 (some centres undefined) [US20250313563, Compound 945609] | > 7.00 | 6.00 to 7.00
CC[C@@]1(c2cccc(N(C)c3cc(C)cc(C)n3)c2)C2=CN=NC2NC2=C1C(=O)CC(C)(C)C2 (some centres undefined) [US20250313563, Compound 945610] | > 7.00 | 6.00 to 7.00
CC[C@]1(c2cccc(-c3cnn(C)c3)c2)C2=C(CC(C)(C)NC2=O)NC2N=NC(C)=C21 (some centres undefined) [US20250313563, Compound 945611] | < 5.30 | < 5.30
CC[C@@]1(c2cccc(-c3cnc(C)n3C)c2)C2=CN=NC2NC2=C1C(=O)CC(C)(C)C2 (some centres undefined) [US20250313563, Compound 945612] | 5.30 to 6.00 | < 5.30
CC[C@]1(c2cccc(-c3cnc(C)n3C)c2)C2=CN=NC2NC2=C1C(=O)CC(C)(C)C2 (some centres undefined) [US20250313563, Compound 945613] | > 7.00 and 6.00 to 7.00 | > 7.00 and 5.30 to 6.00
CC[C@@]1(c2cccc(-c3cnn(C)c3)c2)C2=C(CC(C)(C)NC2=O)NC2N=NC(C)=C21 (some centres undefined) [US20250313563, Compound 945614] | 6.00 to 7.00 | 6.00 to 7.00 and 5.30 to 6.00
CC[C@]1(c2cccc(CN(C)c3cc(C)cc(C)n3)c2)C2=CN=NC2NC2=C1C(=O)CC(C)(C)C2 (some centres undefined) [US20250313563, Compound 945615] | < 5.30 | < 5.30
CC[C@]1(c2cccc(N(C)c3cc(C)ccn3)c2)C2=CN=NC2NC2=C1C(=O)CC(C)(C)C2 (some centres undefined) [US20250313563, Compound 945616] | < 5.30 | < 5.30
CC[C@]1(c2cccc(-c3cnn(C)c3C)c2)C2=CN=NC2NC2=C1C(=O)NC(C)(C)C2 (some centres undefined) [US20250313563, Compound 945617] | 5.30 to 6.00 | < 5.30
CC[C@]1(c2cccc(-c3cnc4n3CCCC4)c2)C2=CN=NC2NC2=C1C(=O)CC(C)(C)C2 (some centres undefined) [US20250313563, Compound 945618] | 5.30 to 6.00 | < 5.30
CC[C@]1(c2cccc(-c3ccnc4c3CCC4)c2)C2=CN=NC2NC2=C1C(=O)CC(C)(C)C2 (some centres undefined) [US20250313563, Compound 945619] | 5.30 to 6.00 | < 5.30
CC[C@]1(c2cccc(-c3cncn3C)c2)C2=CN=NC2NC2=C1C(=O)CC(C)(C)C2 (some centres undefined) [US20250313563, Compound 945620] | 6.00 to 7.00 | 5.30 to 6.00
